Consider 5 molecules from US11981658B2, “Substituted aminopyridine compounds as EGFR inhibitors” (YUHAN CORPORATION, priority 2021, dated 2024).

The target in one assay is EGFR L858R/T790M/C797S (Homo sapiens, UniProt P00533, C797S/L858R/T790M). The experiment in a line: Biochemical EGFR kinase inhibition assay (Lance Ultra TR-FRET), triple mutant L858R/T790M/C797S. An outline of the steps: (§1)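 Enzyme reactions lasted 1 hour at room temperature with test compounds between 0.003 and 10 μM, followed by 10 mM EDTA quench.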
Chain of EGFR L858R/T790M/C797S (P00533 25-1210 T790M/C797S/L858R): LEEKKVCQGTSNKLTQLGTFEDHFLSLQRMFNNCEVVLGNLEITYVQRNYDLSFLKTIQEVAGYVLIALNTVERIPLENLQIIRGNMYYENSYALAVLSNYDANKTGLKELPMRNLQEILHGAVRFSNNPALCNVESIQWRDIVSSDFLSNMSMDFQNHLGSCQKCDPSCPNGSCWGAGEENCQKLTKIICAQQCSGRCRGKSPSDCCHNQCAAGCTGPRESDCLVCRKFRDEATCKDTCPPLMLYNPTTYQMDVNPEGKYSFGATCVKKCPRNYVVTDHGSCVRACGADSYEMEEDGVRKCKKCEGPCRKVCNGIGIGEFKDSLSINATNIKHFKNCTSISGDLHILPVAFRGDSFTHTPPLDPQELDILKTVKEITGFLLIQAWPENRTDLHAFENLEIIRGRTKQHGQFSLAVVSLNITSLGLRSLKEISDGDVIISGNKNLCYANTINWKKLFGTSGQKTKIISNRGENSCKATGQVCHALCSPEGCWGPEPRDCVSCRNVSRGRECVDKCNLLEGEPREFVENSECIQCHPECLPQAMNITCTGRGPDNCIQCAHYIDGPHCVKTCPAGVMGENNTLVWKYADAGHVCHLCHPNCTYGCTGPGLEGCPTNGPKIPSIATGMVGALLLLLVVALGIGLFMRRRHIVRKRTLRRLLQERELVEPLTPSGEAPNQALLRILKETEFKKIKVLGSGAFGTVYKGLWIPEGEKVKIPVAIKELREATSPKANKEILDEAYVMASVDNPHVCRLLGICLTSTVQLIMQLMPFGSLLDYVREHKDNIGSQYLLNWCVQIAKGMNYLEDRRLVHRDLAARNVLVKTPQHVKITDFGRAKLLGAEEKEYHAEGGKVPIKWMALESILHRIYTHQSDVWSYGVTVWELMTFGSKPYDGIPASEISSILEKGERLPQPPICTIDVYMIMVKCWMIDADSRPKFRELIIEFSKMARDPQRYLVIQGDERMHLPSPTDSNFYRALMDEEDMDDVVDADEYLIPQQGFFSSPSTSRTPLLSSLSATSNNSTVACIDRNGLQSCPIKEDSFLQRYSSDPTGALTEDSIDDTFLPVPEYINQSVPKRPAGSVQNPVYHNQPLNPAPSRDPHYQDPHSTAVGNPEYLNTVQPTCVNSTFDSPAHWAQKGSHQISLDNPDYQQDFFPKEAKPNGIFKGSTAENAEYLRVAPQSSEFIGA
(TR-FRET usually uses a lanthanide donor and a delayed reading to cut background.)

The next assay addresses EGFR Del19/C797S (Homo sapiens, UniProt P00533, C797S/DEL746-750). The experiment in a line: Biochemical EGFR kinase inhibition assay (Lance Ultra TR-FRET), double mutant del19/C797S. Put shortly:
as §1

The next assay has as its target EGFR L858R/C797S (Homo sapiens, UniProt P00533, C797S/L858R). The assay can be described thus: Biochemical EGFR kinase inhibition assay (Lance Ultra TR-FRET), double mutant L858R/C797S. An outline of the steps:
as §1

The next assay deals with EGFR wildtype (WT) (Homo sapiens, UniProt P00533). The experiment in a line: Biochemical EGFR kinase inhibition assay (Lance Ultra TR-FRET), wildtype. An outline of the steps: as §1
Chain of EGFR wildtype (WT) (P00533 25-1210): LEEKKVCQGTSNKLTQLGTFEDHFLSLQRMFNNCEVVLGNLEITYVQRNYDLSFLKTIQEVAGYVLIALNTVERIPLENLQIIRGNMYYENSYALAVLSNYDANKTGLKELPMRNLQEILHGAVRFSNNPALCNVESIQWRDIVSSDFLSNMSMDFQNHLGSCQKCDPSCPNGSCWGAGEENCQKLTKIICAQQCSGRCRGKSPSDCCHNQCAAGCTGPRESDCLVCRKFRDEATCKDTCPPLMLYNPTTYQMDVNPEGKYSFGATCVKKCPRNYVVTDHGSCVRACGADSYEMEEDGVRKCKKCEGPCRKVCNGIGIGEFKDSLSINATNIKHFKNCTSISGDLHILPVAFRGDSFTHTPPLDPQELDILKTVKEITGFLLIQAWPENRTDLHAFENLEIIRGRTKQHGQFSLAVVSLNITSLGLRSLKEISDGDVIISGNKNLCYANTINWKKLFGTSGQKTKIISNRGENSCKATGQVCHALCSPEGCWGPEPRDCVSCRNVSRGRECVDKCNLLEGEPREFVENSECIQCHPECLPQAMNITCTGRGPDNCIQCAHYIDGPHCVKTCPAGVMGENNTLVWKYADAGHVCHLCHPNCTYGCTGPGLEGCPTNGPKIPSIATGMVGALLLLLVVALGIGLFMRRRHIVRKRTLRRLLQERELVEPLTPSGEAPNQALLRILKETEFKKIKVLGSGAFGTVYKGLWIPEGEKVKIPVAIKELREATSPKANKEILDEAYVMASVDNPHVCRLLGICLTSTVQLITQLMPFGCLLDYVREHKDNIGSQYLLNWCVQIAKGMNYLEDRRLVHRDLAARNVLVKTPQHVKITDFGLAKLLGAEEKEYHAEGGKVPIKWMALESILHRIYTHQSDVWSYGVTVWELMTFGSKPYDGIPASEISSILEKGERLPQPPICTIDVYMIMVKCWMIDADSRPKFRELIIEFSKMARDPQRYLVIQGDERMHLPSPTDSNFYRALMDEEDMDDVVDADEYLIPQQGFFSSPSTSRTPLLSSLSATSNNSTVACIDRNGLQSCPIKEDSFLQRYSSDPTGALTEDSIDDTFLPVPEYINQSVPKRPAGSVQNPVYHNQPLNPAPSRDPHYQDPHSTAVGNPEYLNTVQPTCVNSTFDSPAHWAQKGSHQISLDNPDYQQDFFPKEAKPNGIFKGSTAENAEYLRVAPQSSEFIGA
Another assay addresses EGFR Del19/T790M/C797S (Homo sapiens, UniProt P00533, C797S/DEL746-750/T790M). The experiment in a line: Biochemical EGFR kinase inhibition assay (Lance Ultra TR-FRET), triple mutant del19/T790M/C797S. An outline of the steps: as §1
Setting [1] is: IC50 L858R/T790M/C797S (nM), 100 μM ATP.
The mark [2] stands for this setting: IC50 Del19/C797S (nM), 100 μM ATP.
[3] abbreviates: IC50 L858R/C797S (nM), 100 μM ATP.
Setting [4] is: IC50 Del19/T790M/C797S (nM), 100 μM ATP.
Setting [5] is: Km ATP, read-out: IC50 L858R/T790M/C797S (nM) Km ATP.
The mark [6] stands for this setting: Km ATP, read-out: IC50 Del19/C797S (nM) Km ATP.
Setting [7] is: Km ATP, read-out: IC50 L858R/C797S (nM) Km ATP.
Setting [8] is: Km ATP, read-out: IC50 WT (nM) Km ATP.
[9] abbreviates: Km ATP, read-out: IC50 Del19/T790M/C797S (nM) Km ATP.

Read-outs that look alike come from different tables or passages of the source.

Chain of EGFR Del19/C797S (P00533 with tags, fused parts or gaps DEL746-750/C797S): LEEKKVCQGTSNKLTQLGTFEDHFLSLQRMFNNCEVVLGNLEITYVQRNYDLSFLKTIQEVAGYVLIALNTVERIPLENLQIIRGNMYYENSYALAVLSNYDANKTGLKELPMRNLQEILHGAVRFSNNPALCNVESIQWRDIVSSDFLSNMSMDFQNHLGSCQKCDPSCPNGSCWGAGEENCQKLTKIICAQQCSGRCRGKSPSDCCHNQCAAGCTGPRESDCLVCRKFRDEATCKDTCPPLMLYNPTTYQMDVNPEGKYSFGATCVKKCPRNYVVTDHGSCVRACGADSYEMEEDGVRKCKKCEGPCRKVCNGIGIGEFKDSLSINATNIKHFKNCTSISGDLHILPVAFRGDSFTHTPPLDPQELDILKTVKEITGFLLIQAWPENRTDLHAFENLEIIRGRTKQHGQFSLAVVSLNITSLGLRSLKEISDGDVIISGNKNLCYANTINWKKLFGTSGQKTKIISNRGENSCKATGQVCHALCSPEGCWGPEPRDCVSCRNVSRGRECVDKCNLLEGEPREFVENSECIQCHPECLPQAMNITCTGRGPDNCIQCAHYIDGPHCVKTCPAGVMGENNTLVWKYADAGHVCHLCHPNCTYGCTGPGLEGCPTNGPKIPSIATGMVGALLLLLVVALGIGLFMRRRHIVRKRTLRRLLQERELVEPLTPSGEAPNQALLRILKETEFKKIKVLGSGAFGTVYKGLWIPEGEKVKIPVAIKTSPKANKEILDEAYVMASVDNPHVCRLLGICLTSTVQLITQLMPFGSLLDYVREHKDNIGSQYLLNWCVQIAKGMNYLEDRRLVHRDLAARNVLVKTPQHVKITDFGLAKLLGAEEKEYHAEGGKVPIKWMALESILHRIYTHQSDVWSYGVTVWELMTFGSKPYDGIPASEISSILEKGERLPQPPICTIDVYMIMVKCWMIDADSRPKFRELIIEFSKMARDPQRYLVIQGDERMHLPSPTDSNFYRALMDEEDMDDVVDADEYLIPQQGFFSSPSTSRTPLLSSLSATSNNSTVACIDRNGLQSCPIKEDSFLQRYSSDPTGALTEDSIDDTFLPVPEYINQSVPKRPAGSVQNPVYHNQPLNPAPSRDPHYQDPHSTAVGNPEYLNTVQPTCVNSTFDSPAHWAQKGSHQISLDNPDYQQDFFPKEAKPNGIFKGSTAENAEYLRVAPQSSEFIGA
Chain of EGFR Del19/T790M/C797S (P00533 with tags, fused parts or gaps DEL746-750/T790M/C797S): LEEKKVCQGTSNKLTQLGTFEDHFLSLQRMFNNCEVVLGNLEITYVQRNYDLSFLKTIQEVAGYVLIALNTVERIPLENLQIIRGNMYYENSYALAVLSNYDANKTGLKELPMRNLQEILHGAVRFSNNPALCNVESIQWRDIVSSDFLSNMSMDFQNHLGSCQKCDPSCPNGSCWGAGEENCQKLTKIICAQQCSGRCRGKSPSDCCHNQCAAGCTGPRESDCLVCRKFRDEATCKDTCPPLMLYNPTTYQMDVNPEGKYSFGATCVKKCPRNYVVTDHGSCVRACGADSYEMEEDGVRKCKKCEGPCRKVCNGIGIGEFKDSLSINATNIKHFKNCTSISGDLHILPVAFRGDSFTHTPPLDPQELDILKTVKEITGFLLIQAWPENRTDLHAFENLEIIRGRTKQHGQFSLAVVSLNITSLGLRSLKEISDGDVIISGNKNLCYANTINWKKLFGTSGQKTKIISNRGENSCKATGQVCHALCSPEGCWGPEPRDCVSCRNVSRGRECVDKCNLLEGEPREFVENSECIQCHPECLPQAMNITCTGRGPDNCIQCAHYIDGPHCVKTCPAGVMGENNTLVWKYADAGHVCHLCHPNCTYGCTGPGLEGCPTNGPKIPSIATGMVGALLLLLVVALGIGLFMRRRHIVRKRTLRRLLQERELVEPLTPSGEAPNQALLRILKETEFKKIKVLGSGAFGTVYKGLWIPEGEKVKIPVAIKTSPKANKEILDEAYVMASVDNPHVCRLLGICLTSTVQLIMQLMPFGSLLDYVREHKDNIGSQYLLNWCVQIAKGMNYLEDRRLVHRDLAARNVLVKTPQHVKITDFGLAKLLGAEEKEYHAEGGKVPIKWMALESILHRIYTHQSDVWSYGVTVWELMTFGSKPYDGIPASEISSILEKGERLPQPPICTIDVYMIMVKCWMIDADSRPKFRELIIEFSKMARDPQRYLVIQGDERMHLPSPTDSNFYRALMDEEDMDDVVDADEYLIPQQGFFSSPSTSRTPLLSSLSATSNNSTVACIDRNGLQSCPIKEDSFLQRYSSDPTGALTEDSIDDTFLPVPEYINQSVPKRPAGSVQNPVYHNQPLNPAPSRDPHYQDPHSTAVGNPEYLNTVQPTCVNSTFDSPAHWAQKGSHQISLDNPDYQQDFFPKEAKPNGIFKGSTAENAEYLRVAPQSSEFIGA

For `CNCC1(F)CCN(c2cc(Nc3ccnc(-c4cnn(S(=O)(=O)C5CC5)c4)n3)ncc2C#Cc2cnn(C)c2)CC1` [Example 382, 2-(1-(Cyclopropylsulfonyl)-1H-pyrazol-4-yl)-N-(4-(4-fluoro-4-((methylamino)methyl)piperidin-1-yl)-5-((1-methyl-1H-pyrazol-4-yl)ethynyl)pyridin-2-yl)pyrimidin-4-amine], the IC50 on EGFR L858R/T790M/C797S (setting [1]) was determined as 0.4 nM; at EGFR L858R/T790M/C797S (Km ATP, read-out: IC50 L858R/T790M/C797S (nM), Km ATP), 0.2 nM; on EGFR Del19/C797S (setting [2]) it was 2.9 nM; at EGFR Del19/C797S (Km ATP, read-out: IC50 Del19/C797S (nM), Km ATP), 2.1 nM; against EGFR L858R/C797S (setting [3]), 32.4 nM; at EGFR L858R/C797S (Km ATP, read-out: IC50 L858R/C797S (nM), Km ATP), 5.5 nM. For the same molecule, the IC50 at EGFR wildtype (WT) (IC50 WT (nM), 100 μM ATP) came out at 5000 nM; at EGFR wildtype (WT) (Km ATP, read-out: IC50 WT (nM), Km ATP), 10.4 nM; against EGFR Del19/T790M/C797S (setting [4]) it was 0.2 nM; on EGFR Del19/T790M/C797S (Km ATP, read-out: IC50 Del19/T790M/C797S (nM), Km ATP), 0.2 nM.
With `CC(=O)N1CCC(n2cc(C#Cc3cnc(Nc4ccnc(-c5cnn(S(=O)(=O)C6CC6)c5)n4)cc3N3CCCC(O)C3)cn2)CC1` (stereo not drawn) [Example 114, 1-(4-(4-((6-((2-(1-(Cyclopropylsulfonyl)-1H-pyrazol-4-yl)pyrimidin-4-yl)amino)-4-(3-hydroxypiperidin-1-yl)pyridin-3-yl)ethynyl)-1H-pyrazol-1-yl)piperidin-1-yl)ethan-1-one], the IC50 against EGFR L858R/T790M/C797S (setting [1]) was found to be 1.7 nM; on EGFR L858R/T790M/C797S (setting [5]) it was 0.6 nM; on EGFR Del19/C797S (setting [2]), 9.5 nM; at EGFR Del19/C797S (setting [6]), 5.4 nM; against EGFR L858R/C797S (setting [3]) it was 13.7 nM; on EGFR L858R/C797S (setting [7]), 2.6 nM. In addition, the IC50 at EGFR wildtype (WT) (IC50 WT (nM), 100 μM ATP) was over 10000 nM; at EGFR wildtype (WT) (setting [8]), 17.4 nM; against EGFR Del19/T790M/C797S (setting [4]), 0.5 nM; at EGFR Del19/T790M/C797S (setting [9]), 0.5 nM.
With `O=S(=O)(C1CC1)n1cc(-c2nccc(Nc3cc(N[C@H]4CCC[C@H](O)C4)c(C#Cc4ccc(CN5CCOCC5)cc4)cn3)n2)cn1` [Example 161, (1 S,3S)-3-((2-((2-(1-(Cyclopropylsulfonyl)-1H-pyrazol-4-yl)pyrimidin-4-yl)amino)-5-((4-(morpholinomethyl)phenyl)ethynyl)pyridin-4-yl)amino)cyclohexan-1-ol], the IC50 is 3.2 nM at EGFR L858R/T790M/C797S (ATP at Km, read-out: IC50 L858R/T790M/C797S (nM), Km ATP); 10.6 nM on EGFR L858R/T790M/C797S (setting [1]); 25.5 nM on EGFR Del19/C797S (ATP at Km, read-out: IC50 Del19/C797S (nM), Km ATP); 38.2 nM against EGFR Del19/C797S (setting [2]); 21.6 nM at EGFR L858R/C797S (ATP at Km, read-out: IC50 L858R/C797S (nM), Km ATP); 547 nM on EGFR L858R/C797S (setting [3]). The IC50 at EGFR wildtype (WT) (ATP at Km, read-out: IC50 WT (nM), Km ATP) was 650 nM; against EGFR wildtype (WT) (IC50 WT (nM), 100 μM ATP), over 10000 nM; at EGFR Del19/T790M/C797S (ATP at Km, read-out: IC50 Del19/T790M/C797S (nM), Km ATP) it was 5.5 nM; against EGFR Del19/T790M/C797S (setting [4]), 8.8 nM.
Consider `Cn1cc(C#Cc2cnc(Nc3ccnc(-c4cnn(S(=O)(=O)C5CC5)c4)n3)cc2N[C@H]2CC[C@@H](NCCF)CC2)cn1` [Example 80, N^2-(2-(1-(Cyclopropylsulfonyl)-1H-pyrazol-4-yl)pyrimidin-4-yl)-N^4-((1s, 4s)-4-((2-fluoroethyl)amino)cyclohexyl)-5-((1-methyl-1H-pyrazol-4-yl)ethynyl)pyridine-2,4-diamine], for which the IC50 at EGFR L858R/T790M/C797S (setting [1]) was 1.9 nM; at EGFR L858R/T790M/C797S (setting [5]), 0.5 nM; at EGFR Del19/C797S (setting [2]), 16.1 nM; on EGFR Del19/C797S (setting [6]), 12.3 nM; on EGFR L858R/C797S (setting [3]), 137 nM; at EGFR L858R/C797S (setting [7]), 16.4 nM. Further, the IC50 against EGFR wildtype (WT) (IC50 WT (nM), 100 μM ATP) is over 10000 nM; on EGFR wildtype (WT) (setting [8]) it was 80.1 nM; at EGFR Del19/T790M/C797S (setting [4]) it was 0.6 nM; on EGFR Del19/T790M/C797S (setting [9]), 0.5 nM.
`CC(C)Nc1cc(Nc2ccnc(-c3cnn(S(=O)(=O)C4CC4)c3)n2)ncc1C#CCCCCNC(=O)N1CCOCC1` [Example 209, N-(6-(6-((2-(1-(Cyclopropylsulfonyl)-1H-pyrazol-4-yl)pyrimidin-4-yl)amino)-4-(isopropylamino)pyridin-3-yl)hex-5-yn-1-yl)morpholine-4-carboxamide]: the IC50 on EGFR L858R/T790M/C797S (setting [1]) was 4.4 nM; against EGFR Del19/C797S (setting [2]), 120 nM; on EGFR L858R/C797S (setting [3]), 112 nM; on EGFR wildtype (WT) (IC50 WT (nM), 100 μM ATP) it was over 10000 nM; at EGFR Del19/T790M/C797S (setting [4]), 2.6 nM.
